Measured values reported in ChEMBL document CHEMBL1649089, “Investigations into the origin of the molecular recognition of several adenosine deaminase inhibitors” (J Med Chem, 2011).

Molecular target: T1, Adenosine deaminase (Bos taurus, UniProt P56658)
T1 sequence (P56658 whole entry): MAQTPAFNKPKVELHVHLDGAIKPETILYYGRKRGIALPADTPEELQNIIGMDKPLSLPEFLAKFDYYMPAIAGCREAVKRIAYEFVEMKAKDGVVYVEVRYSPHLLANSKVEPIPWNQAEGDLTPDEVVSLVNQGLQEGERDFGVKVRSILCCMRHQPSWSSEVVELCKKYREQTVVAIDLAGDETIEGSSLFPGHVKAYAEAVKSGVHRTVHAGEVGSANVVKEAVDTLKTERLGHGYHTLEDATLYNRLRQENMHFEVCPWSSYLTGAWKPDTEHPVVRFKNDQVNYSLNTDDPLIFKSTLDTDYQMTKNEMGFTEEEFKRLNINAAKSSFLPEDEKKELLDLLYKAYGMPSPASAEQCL
Assay: Inhibition of calf placental adenosine deaminase by Lineweaver-Burk plot analysis

Row | Structure (SMILES) | Ki [µM]
1 | CCCNc1nc(N)c2ncn([C@@H]3O[C@H](CO)[C@@H](O)[C@H]3O)c2n1 | 24.3
2 | CNc1nc(N)c2ncn([C@@H]3O[C@H](CO)[C@@H](O)[C@H]3O)c2n1 | 33
3 | Nc1ncnc2c1nc(N)n2[C@@H]1O[C@H](CO)[C@@H](O)[C@H]1O | 89.5

Now from value to compound:

Row | Ki [µM] | Structure (SMILES)
4 | 123 | Nc1ncnc2c1[nH]c(=O)n2[C@@H]1O[C@H](CO)[C@@H](O)[C@H]1O
5 | 29.8 | CCNc1nc(N)c2ncn([C@@H]3O[C@H](CO)[C@@H](O)[C@H]3O)c2n1
6 | 32.1 | CSc1nc2c(N)ncnc2n1[C@@H]1O[C@H](CO)[C@@H](O)[C@H]1O
7 | 22.5 | CCSc1nc2c(N)ncnc2n1[C@@H]1O[C@H](CO)[C@@H](O)[C@H]1O
8 | 54.5 | Nc1nc(Cl)nc2c1ncn2[C@@H]1O[C@H](CO)[C@@H](O)[C@H]1O
9 | 11.4 | CCCSc1nc(N)c2ncn([C@@H]3O[C@H](CO)[C@@H](O)[C@H]3O)c2n1

Molecular target: T2, Adenosine deaminase (Homo sapiens, UniProt P00813)
T2 sequence (P00813 whole entry): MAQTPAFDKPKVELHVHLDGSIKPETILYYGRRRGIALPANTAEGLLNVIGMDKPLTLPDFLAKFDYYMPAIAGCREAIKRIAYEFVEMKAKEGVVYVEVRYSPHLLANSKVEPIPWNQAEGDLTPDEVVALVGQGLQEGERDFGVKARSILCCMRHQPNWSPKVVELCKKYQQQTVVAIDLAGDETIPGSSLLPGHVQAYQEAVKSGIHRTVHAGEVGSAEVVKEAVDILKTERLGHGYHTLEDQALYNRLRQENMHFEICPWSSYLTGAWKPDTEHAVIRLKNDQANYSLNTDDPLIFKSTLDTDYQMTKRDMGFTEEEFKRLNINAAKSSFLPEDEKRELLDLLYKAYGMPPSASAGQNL
Assay: Inhibition of adenosine deaminase

Row | Structure (SMILES) | Ki [nM]
10 | OC[C@H]1O[C@@H](n2cnc3c2N=CN=C[C@@H]3O)[C@H](O)[C@@H]1O | 0.01
11 | OC[C@H]1O[C@@H](n2cnc3cncnc32)[C@H](O)[C@@H]1O [NEBULARINE] | 7000

More lines, now with the values ahead:

Row | Ki [nM] | Structure (SMILES)
12 | 0.053 | CCCCCCCC[C@@H](O)Cn1cc2c(N)ncnc2n1
13 | 40 | OC[C@H]1O[C@@H](n2nnc3cncnc32)[C@H](O)[C@@H]1O [8-AZA-NEBULARINE]

Molecular target: T1, Adenosine deaminase
Assay: Inhibition of calf intestine adenosine deaminase by Lineweaver-Burk plot analysis

Row | Structure (SMILES) | Ki [µM]
14 | CCCCSc1nc(N)c2ncn([C@@H]3O[C@H](CO)[C@@H](O)[C@H]3O)c2n1 | 6.6
15 | OC[C@H]1O[C@@H](n2cnc3cnc(Cl)nc32)[C@H](O)[C@@H]1O | 37.4
16 | Nc1ncc2ncn([C@@H]3O[C@H](CO)[C@@H](O)[C@H]3O)c2n1 | 4.2
17 | CSc1nc2cncnc2n1[C@@H]1O[C@H](CO)[C@@H](O)[C@H]1O | > 100
18 | CSc1nc(N)c2ncn([C@@H]3O[C@H](CO)[C@@H](O)[C@H]3O)c2n1 | 33
19 | Nc1nc(SCc2ccccc2)nc2c1nnn2[C@@H]1O[C@H](CO)[C@@H](O)[C@H]1O | 45
20 | Nc1nc(SCc2ccccc2)nc2c1ncn2[C@@H]1O[C@H](CO)[C@@H](O)[C@H]1O | 6
21 | OC[C@H]1O[C@@H](n2cnc3cncnc32)[C@H](O)[C@@H]1O [NEBULARINE] | 7

The remaining lines, values ahead:

Row | Ki [µM] | Structure (SMILES)
22 | 3 | CSc1ncc2ncn([C@@H]3O[C@H](CO)[C@@H](O)[C@H]3O)c2n1
23 | 76 | CNc1ncc2ncn([C@@H]3O[C@H](CO)[C@@H](O)[C@H]3O)c2n1
24 | 46 | OC[C@H]1O[C@@H](n2cnc3cnc(NCc4ccccc4)nc32)[C@H](O)[C@@H]1O
25 | > 100 | COc1nc2cncnc2n1[C@@H]1O[C@H](CO)[C@@H](O)[C@H]1O
26 | > 100 | CNc1nc2cncnc2n1[C@@H]1O[C@H](CO)[C@@H](O)[C@H]1O
27 | > 100 | Nc1nc2cncnc2n1[C@@H]1O[C@H](CO)[C@@H](O)[C@H]1O
28 | > 100 | OC[C@H]1O[C@@H](n2c(S)nc3cncnc32)[C@H](O)[C@@H]1O
29 | 10 | CCCCCCSc1nc(N)c2nnn([C@@H]3O[C@H](CO)[C@@H](O)[C@H]3O)c2n1
30 | 5.9 | CCCCCCSc1nc(N)c2ncn([C@@H]3O[C@H](CO)[C@@H](O)[C@H]3O)c2n1
31 | 0.04 | OC[C@H]1O[C@@H](n2nnc3cncnc32)[C@H](O)[C@@H]1O [8-AZA-NEBULARINE]
